pIC50: −log10 of the molar value. Where a name gives a salt, the structure may show the parent alone.

This test concerns SARS-CoV-2. As to the kind of experiment: microbe, parasite or virus in culture. The following applies: Severe acute respiratory syndrome coronavirus 2, Vero C1008, 48 h; for IC50: read-out: pIC50 (converted).

What is called pIC50 is −log10 of the IC50, conventionally taken in molar units. Regarding `CC[C@H]1C(C)=NN=C(c2ccc(OC)c(OC)c2)c2cc(OC)c(OC)cc21` [DEXTOFISOPAM], the pIC50 is less than 4.70 and the IC50 was more than 20 µM.

Turning to `C[N+](C)(C)C[C@H](O)CC(=O)O` [DEXTROCARNITINE], the pIC50 is less than 4.70 and the IC50 is more than 20 µM.

Consider `COc1ccc2c(c1)[C@]13CCCC[C@@H]1[C@H](C2)N(C)CC3` [DEXTROMETHORPHAN], for which the pIC50 was less than 4.70 and the IC50 was more than 20 µM.

On to `OC[C@H]1OC(O)[C@H](O)[C@@H](O)[C@@H]1O` (stereo not given in full) [DEXTROSE], for which the pIC50 is less than 4.70 and the IC50 is more than 20 µM.

`Nc1cc2[nH]cnc2c(=O)[nH]1` [DEZAGUANINE]: the pIC50 was less than 4.70 and the IC50 was more than 20 µM.

In the case of `C[C@@]12CCCCC[C@@H](Cc3ccc(O)cc31)[C@@H]2N` [DEZOCINE], the pIC50 was less than 4.70 and the IC50 was more than 20 µM.

With `CC(=O)Oc1cccc2c1C(=O)c1c(OC(C)=O)cc(C(=O)O)cc1C2=O` [DIACEREIN], the pIC50 was less than 4.70 and the IC50 was more than 20 µM.

Take `CC(=O)Nc1ccc(OC(C)=O)cc1` [DIACETAMATE]: the pIC50 was less than 4.70 and the IC50 is more than 20 µM.

`CCN(CC)CCOc1ccc2nc(N(C)C)sc2c1` [DIAMTHAZOLE]: the negative logarithm of the IC50 (pIC50) is less than 4.70 and the IC50 is more than 20 µM.

For `CC(=O)Nc1c(I)c(NC(C)=O)c(I)c(C(=O)O)c1I` [DIATRIZOIC ACID], the pIC50 is less than 4.70 and the IC50 is more than 20 µM.

Regarding `COc1ccc(Cc2cnc(N)nc2N)cc1OC` [DIAVERIDINE], the pIC50 is less than 4.70 and the IC50 is more than 20 µM.

On to `CN1C(=O)CN=C(c2ccccc2)c2cc(Cl)ccc21` [DIAZEPAM], for which the pIC50 was less than 4.70 and the IC50 is more than 20 µM.

For `CCOC(=O)NC1=C(N2CC2)C(=O)C(NC(=O)OCC)=C(N2CC2)C1=O` [DIAZIQUONE], the pIC50 is less than 4.70 and the IC50 was more than 20 µM.

`CC1=Nc2ccc(Cl)cc2S(=O)(=O)N1` [DIAZOXIDE]: the pIC50 was less than 4.70 and the IC50 was more than 20 µM.

In the case of `CN(C)CCN1C(=O)c2ccccc2N(C)c2ccccc21` [DIBENZEPIN], the pIC50 was less than 4.70 and the IC50 was more than 20 µM.

Turning to `N[C@@H](Cc1cc(Br)c(O)c(Br)c1)C(=O)O` [DIBROMOTYROSINE], the pIC50 was less than 4.70 and the IC50 was more than 20 µM.

With `CC(=O)OCC(=O)[C@@]1(O)CC[C@H]2[C@@H]3CCC4=CC(=O)C=C[C@]4(C)[C@@]3(Cl)[C@@H](Cl)C[C@@]21C` [DICHLORISONE ACETATE], the pIC50 was less than 4.70 and the IC50 is more than 20 µM.

Turning to `O=C(O)C(Cl)Cl` [DICHLOROACETIC ACID], the pIC50 was less than 4.70 and the IC50 is more than 20 µM.

In the case of `OCc1ccc(Cl)cc1Cl` [DICHLOROBENZYL ALCOHOL], the pIC50 is less than 4.70 and the IC50 is more than 20 µM.

Take `Oc1ccc(Cl)cc1Cc1cc(Cl)ccc1O` [DICHLOROPHEN]: the pIC50 was less than 4.70 and the IC50 was more than 20 µM.

Regarding `NS(=O)(=O)c1cc(Cl)c(Cl)c(S(N)(=O)=O)c1` [DICHLORPHENAMIDE], the pIC50 is less than 4.70 and the IC50 is more than 20 µM.

With `COP(=O)(OC)OC=C(Cl)Cl` [DICHLORVOS], the pIC50 is less than 4.70 and the IC50 was more than 20 µM.

Regarding `N#CC(c1ccc(Cl)cc1)c1c(Cl)cc(-n2ncc(=O)[nH]c2=O)cc1Cl` (stereo not given) [DICLAZURIL], the pIC50 was less than 4.70 and the IC50 is more than 20 µM.

For `O=C(O)Cc1ccccc1Nc1c(Cl)cccc1Cl` [DICLOFENAC], the pIC50 is less than 4.70 and the IC50 was more than 20 µM.

For the compound `Cc1onc(-c2c(Cl)cccc2Cl)c1C(=O)N[C@@H]1C(=O)N2[C@@H]1SC(C)(C)[C@@H]2C(=O)O` [DICLOXACILLIN], the pIC50 is less than 4.70 and the IC50 is more than 20 µM.

As to `COc1c2ccccc2nc2occc12` [DICTAMNINE], the pIC50 was less than 4.70 and the IC50 was more than 20 µM.

As for `O=c1oc2ccccc2c(O)c1Cc1c(O)c2ccccc2oc1=O` [DICUMAROL], the pIC50 is less than 4.70 and the IC50 is more than 20 µM.

On to `CCN(CC)CCOC(=O)C1(C2CCCCC2)CCCCC1` [DICYCLOMINE], for which the pIC50 is less than 4.70 and the IC50 is more than 20 µM.

With `C/C=C(/C(=C/C)c1ccc(O)cc1)c1ccc(O)cc1` [DIENESTROL], the pIC50 is less than 4.70 and the IC50 is more than 20 µM.

`CCOP(=O)(O)OCC` [DIETHYL HYDROGEN PHOSPHATE]: the pIC50 was less than 4.70 and the IC50 is more than 20 µM.

For the compound `CCN(CC)C(=O)N1CCN(C)CC1` [DIETHYLCARBAMAZINE], the pIC50 is less than 4.70 and the IC50 was more than 20 µM.

As for `CCN(CC)C(C)C(=O)c1ccccc1` (stereo not given) [DIETHYLPROPION], the pIC50 is less than 4.70 and the IC50 is more than 20 µM.

On to `CC/C(=C(/CC)c1ccc(O)cc1)c1ccc(O)cc1` [DIETHYLSTILBESTROL], for which the pIC50 is less than 4.70 and the IC50 was more than 20 µM.

In the case of `CCN(CC)C(=O)c1cccc(C)c1` [DIETHYLTOLUAMIDE], the pIC50 is less than 4.70 and the IC50 is more than 20 µM.

Regarding `OCCN1CCCCC1C(c1ccccc1)c1ccccc1` (stereo not given) [DIFEMETOREX], the pIC50 was less than 4.70 and the IC50 was more than 20 µM.

As to `N#CC(CCN1CCC(C(=O)O)(c2ccccc2)CC1)(c1ccccc1)c1ccccc1` [DIFENOXIN], the pIC50 was less than 4.70 and the IC50 was more than 20 µM.

In the case of `O=C(Cc1ccc(-c2ccccc2)cc1)Nc1ccccn1` [DIFENPIRAMIDE], the pIC50 is less than 4.70 and the IC50 was more than 20 µM.

For the compound `CC(=O)OCC(=O)[C@@]1(OC(C)=O)[C@@H](C)C[C@H]2[C@@H]3C[C@H](F)C4=CC(=O)C=C[C@]4(C)[C@@]3(F)[C@@H](O)C[C@@]21C` [DIFLORASONE DIACETATE], the pIC50 is less than 4.70 and the IC50 is more than 20 µM.

Regarding `CN1CCN(c2cc3c(cc2F)c(=O)c(C(=O)O)cn3-c2ccc(F)cc2)CC1` [DIFLOXACIN], the pIC50 was less than 4.70 and the IC50 is more than 20 µM.

As to `CCCC(=O)O[C@]1(C(=O)COC(C)=O)CC[C@H]2[C@@H]3C[C@H](F)C4=CC(=O)C=C[C@]4(C)[C@@]3(F)[C@@H](O)C[C@@]21C` [DIFLUPREDNATE], the pIC50 was less than 4.70 and the IC50 was more than 20 µM.

In the case of `O=C1c2ccccc2CN2C(=O)c3ccccc3CN12` [DIFTALONE], the pIC50 is less than 4.70 and the IC50 is more than 20 µM.

For `C[C@H]1O[C@@H](O[C@H]2[C@@H](O)C[C@H](O[C@H]3[C@@H](O)C[C@H](O[C@H]4CC[C@@]5(C)[C@H](CC[C@@H]6[C@@H]5CC[C@]5(C)[C@@H](C7=CC(=O)OC7)CC[C@]65O)C4)O[C@@H]3C)O[C@@H]2C)C[C@H](O)[C@@H]1O` [DIGITOXIN], the pIC50 was less than 4.70 and the IC50 is more than 20 µM.

On to `C[C@H]1O[C@@H](O[C@H]2[C@@H](O)C[C@H](O[C@H]3[C@@H](O)C[C@H](O[C@H]4CC[C@@]5(C)[C@H](CC[C@@H]6[C@@H]5C[C@@H](O)[C@]5(C)[C@@H](C7=CC(=O)OC7)CC[C@]65O)C4)O[C@@H]3C)O[C@@H]2C)C[C@H](O)[C@@H]1O` [DIGOXIN], for which the pIC50 was less than 4.70 and the IC50 is more than 20 µM.

For `N/N=c1\[nH][nH]/c(=N\N)c2ccccc12` [DIHYDRALAZINE], the pIC50 was less than 4.70 and the IC50 is more than 20 µM.

On to `CC(C)[C@@]1(NC(=O)[C@@H]2C[C@@H]3c4cccc5[nH]cc(c45)C[C@H]3N(C)C2)O[C@@]2(O)[C@@H]3CCCN3C(=O)[C@H](Cc3ccccc3)N2C1=O` [DIHYDROERGOCRISTINE], for which the pIC50 was less than 4.70 and the IC50 is more than 20 µM.

For `CN1C[C@H](C(=O)N[C@]2(C)O[C@@]3(O)[C@@H]4CCCN4C(=O)[C@H](Cc4ccccc4)N3C2=O)C[C@@H]2c3cccc4[nH]cc(c34)C[C@H]21` [DIHYDROERGOTAMINE], the pIC50 was less than 4.70 and the IC50 was more than 20 µM.

As to `COc1cc2c(cc1OC)[C@@H]1C(=O)c3ccc4c(c3O[C@@H]1CO2)CC(C(C)C)O4` (stereo not given in full) [DIHYDROROTENONE], the pIC50 is less than 4.70 and the IC50 was more than 20 µM.

With `CCCCCCCCCCCCCCC[C@@H](O)[C@@H](N)CO` [DIHYDROSPINGOSINE], the pIC50 is less than 4.70 and the IC50 is more than 20 µM.

Turning to `O=C(CO)CO` [DIHYDROXYACETONE], the pIC50 is less than 4.70 and the IC50 is more than 20 µM.

`CC(C)N(CCC(c1ccccc1)c1ccccc1)C(C)C` [DIISOPROMINE]: the pIC50 was less than 4.70 and the IC50 was more than 20 µM.

For `C[C@H](CCc1ccccc1)NC[C@H](O)c1ccc(O)c(C(N)=O)c1` [DILEVALOL], the pIC50 is less than 4.70 and the IC50 was more than 20 µM.

For the compound `CN(C(=O)C(Cl)Cl)c1ccc(OC(=O)c2ccco2)cc1` [DILOXANIDE FUROATE], the pIC50 was less than 4.70 and the IC50 is more than 20 µM.

Consider `COc1ccc([C@@H]2Sc3ccccc3N(CCN(C)C)C(=O)[C@@H]2OC(C)=O)cc1` [DILTIAZEM], for which the pIC50 is less than 4.70 and the IC50 was more than 20 µM.

In the case of `CN(C)CCOC(c1ccccc1)c1ccccc1.Cn1c(=O)c2[nH]c(Cl)nc2n(C)c1=O` [DIMENHYDRINATE], the pIC50 was less than 4.70 and the IC50 was more than 20 µM.

`CCOC(C(=O)OCCN(C)C)(c1ccccc1)c1ccccc1` [DIMENOXADOL]: the pIC50 was less than 4.70 and the IC50 was more than 20 µM.

In the case of `CCC(O)C(CC(C)N(C)C)(c1ccccc1)c1ccccc1` (stereo not given) [DIMEPHEPTANOL], the negative-log IC50 (pIC50) was less than 4.70 and the IC50 was more than 20 µM.

Consider `CC1(C)OC(=O)NC1=O` [DIMETHADIONE], for which the pIC50 was less than 4.70 and the IC50 is more than 20 µM.

For the compound `CCCCc1cc2ccccc2c(OCCN(C)C)n1` [DIMETHISOQUIN], the pIC50 was less than 4.70 and the IC50 was more than 20 µM.

With `COC(=O)/C=C/C(=O)OC` [DIMETHYL FUMARATE], the pIC50 is less than 4.70 and the IC50 was more than 20 µM.

With `CN(C)CCO` [DIMETHYLAMINOETHANOL], the pIC50 was less than 4.70 and the IC50 is more than 20 µM.
